CO[C@H]1O[C@@H]2O[C@@]3(C)CC[C@H]4[C@H](C)CC[C@@H]([C@H]1C)[C@@]24OO3
solubility (mole fraction)
Conditions	in ethanol	in methanol
289.05 K	0.0395	–
289.45 K	–	0.0263
290.85 K	0.0426	–
291.15 K	–	0.0295
293.95 K	0.0492	–
294.05 K	–	0.0343
296.95 K	0.0592	0.0405
299.05 K	0.0682	0.0463
300.75 K	–	0.0519
301.05 K	0.0764	–
303.55 K	–	0.0649
303.95 K	0.0903	–
306.35 K	–	0.0824
306.95 K	0.11	–
308.25 K	–	0.0988
308.45 K	0.117	–
310.15 K	–	0.116
310.45 K	0.133	–
312.95 K	–	0.149
313.2 K	0.164	–
315.65 K	–	0.187
316.25 K	0.2	–
317.35 K	–	0.222
318.95 K	0.251	–
319.45 K	–	0.297
322.05 K	–	0.355
322.65 K	0.315	–
326.05 K	0.387	–
328.65 K	0.442	–
